Measured values from patent US20230096766A1, “AMINO ACID HAVING FUNCTIONAL GROUP CAPABLE OF INTERMOLECULAR HYDROGEN BONDING, PEPTIDE COMPOUND CONTAINING SAME AND METHOD FOR PRODUCTION THEREOF” (Chugai Seiyaku Kabushiki Kaisha, priority 2018, published 2023).
Read-outs that look alike come from different tables or passages of the source. Blank lines part the entries; values can stand above or below the molecule they belong to. Where a SMILES comes first, the peptide text is derived from it. Bridges are numbered along the chain shown (N, C = ends). [ ]: non-standard residue; d: D form. The star is where a group is joined. NMeHph(3-OMe-4-CONHMe) = CNC(=O)c1ccc(CC[C@H](NC)C(=O)O)cc1OC; NMeAbu(3,3-F2-piperidino) = CN[C@@H](CCN1CCCC(F)(F)C1)C(=O)O; Ethyl(2-morpholino) = C1CN(CC*)CCO1; NMeF = CN[C@@H](Cc1ccccc1)C(=O)O; NMeD = CN[C@@H](CC(=O)O)C(=O)O; CH2CONHtBu = CC(C)(C)NC(=O)C*; NMeL = CN[C@@H](CC(C)C)C(=O)O; NMeV = CN[C@H](C(=O)O)C(C)C; NMeAbu = CC[C@H](NC)C(=O)O; NMeA = CN[C@@H](C)C(=O)O; Piperidide = C1CCN(*)CC1; NBuGly = CCCCNCC(=O)O; NPrGly = CCCNCC(=O)O; Bn = c1ccc(C*)cc1; Sar = CNCC(=O)O; tBu = CC(C)(C)*

Columns and labels:
[1] = system: Caco-2; assay: Membrane permeability test of cyclic peptides (Caco-2, modified/improved method of WO 2018/124162)
[2] = as above; settings: human, Caco-2, Caco-2 (cm/sec)
[3] = Actual measurement of pKa of amino acid side chains by titration (Sirius T3) on three-residue peptides; format: physicochemical; settings: for pKa / basic pKa: measured by titration (Sirius T3), 25° C., 0.15M; for pKa: amino acid X in three-residue peptide ZMeGly-X-MeGly-pip (Table 24, second part); for basic pKa: amino acid X in three-residue peptide ZMeGly-X-MeGly-pip (Table 24)
Method: pKas and basic pKas can be determined by a conventional method. For example, they can be measured by a method such as that described in Experimental Chemistry Lecture 5, “Thermal Measurements and Equilibrium”, p. 460 (edited by The Chemical Society of Japan, published by Maruzen Co., Ltd.). More specifically, they can be measured by a method described in Reference Example 3-1.
Herein, measurement of pKas of amino acid side chains was carried out according to the following procedure.
Sirius T3 (Sirius Analytical Instruments Ltd., Forest Row, East Sussex, RH18 5DW, UK)
0.15 M KCl was added to about 1 mg of a test substance as a powder or in about 100 μL of a 10 mM DMSO solution. When the test substance was a basic compound, 0.5 M HCl was added until pH 2 and the test substance was then titrated to pH 12 with 0.5 M KOH.
When the test substance was an acidic compound, 0.5 M KOH was added until pH 12 and the test substance was then titrated to pH 2 with 0.5 M HCl.
Titration operations were automatically performed by T3 manufactured by Sirius, and pKas were determined from the resulting titration curves using Sirius T3 Refinement software.
pKas were similarly determined using imipramine HCl, propranolol HCl, and warfarin as reference compounds, and were confirmed to be within the test results obtained in Sirius. pKas of amino acid side chains were determined by synthesizing a sequence in which the amino acid to be evaluated is introduced into the second residue (the position X in the following table) of a peptide composed of three residues as shown below.

[4] = membrane permeability of cyclic peptides, Caco-2
[5] = amino acid side chain, Sirius T3 titration

SMILES: CCCN1CC(=O)N(C)[C@@H](CC(C)C)C(=O)N[C@@H](CC(C)C)C(=O)N(C)[C@@H](Cc2ccccc2)C(=O)N(C)[C@@H](C)C(=O)N[C@H](C(=O)N2CCCCC2)CC(=O)N[C@H](CC(C)C)C(=O)N(C)[C@@H](Cc2ccccc2)C(=O)N[C@@H](COCC(=O)NC(C)(C)C)C(=O)N(C)[C@@H](CC(C)C)C(=O)N[C@@H]([C@@H](C)O)C1=O [AP11] ([dL][NMeF]S(CH2CONHtBu)[NMeL]T[NPrGly][NMeL]L[NMeF][NMeA]D-Piperidide; lactam N-11)
Caco-2 [1, 4]: 1.1e-06 cm/s

SMILES: CNC(=O)c1ccc(CC[C@H]2C(=O)N[C@@H]([C@@H](C)O)C(=O)N(C)CC(=O)N(C)[C@@H](CC(C)C)C(=O)N[C@@H](CC(C)C)C(=O)N(C)[C@@H](Cc3ccccc3)C(=O)N(C)[C@@H](CC(C)C)C(=O)N[C@H](C(=O)N3CCCCC3)CC(=O)N[C@H](C(C)C)C(=O)N(C)[C@@H](CC(C)C)C(=O)N[C@@H](C(C)C)C(=O)N2C)cc1OC [AP226] ([dV][NMeL]V[NMeHph(3-OMe-4-CONHMe)]T[Sar][NMeL]L[NMeF][NMeL]D-Piperidide; lactam N-11)
Caco-2 [1, 4]: 1e-06 cm/s
Papp [2, 4]: 0.57 ×10⁻⁶ cm/s

measured pKa [3, 5]: 3.8
SMILES: CS(=O)(=O)NC(=O)CC[C@H](N)C(=O)O [Gln(Ms)]

pKa [3]: 5.7
SMILES: CN[C@@H](CCc1noc(=O)[nH]1)C(=O)O [MeAbu(5-Oxo-Odz)]

basic pKa [3]: 6.8
SMILES: CN[C@@H](CCN1CCOCC1)C(=O)O [MeAbu(Mor)]

pKa [3]: 5.7
SMILES: CN[C@@H](CCN1CCCC(F)(F)C1)C(=O)O [MeAbu(pip-3-F2)]

basic pKa [3]: 6.7
SMILES: CN[C@@H](CCN1CCC(F)(F)CC1)C(=O)O [MeAbu(pip-4-F2)]

SMILES: CC(C)(CO)COC[C@H](N)C(=O)O [Ser(2-Me2-PrOH), O-(3-hydroxy-2,2-dimethylpropyl)-L-serine]
membrane permeability compared with counterpart peptides ([1]; pairwise comparison of matched cyclic peptides, result in words): tended to have better membrane permeability than Ser(nPrOH)

basic pKa [3]: 7.2
SMILES: N[C@@H](COCCN1CCOCC1)C(=O)O [Ser(Et-2-Mor)]

measured basic pKa [3, 5]: 9.1
SMILES: CN(C)CCOC[C@H](N)C(=O)O [Ser(Et-2-NMe2)]

SMILES: CC(C)C[C@@H]1NC(=O)[C@H](C)N(C)C(=O)C[C@@H](C(=O)N2CCCCC2)NC(=O)[C@H](CC(C)C)N(C)C(=O)CN(C)C(=O)[C@H]([C@@H](C)O)NC(=O)[C@H](C)N(C)C(=O)[C@H](Cc2ccccc2)N(C)C(=O)[C@H](COCc2ccccc2)NC(=O)[C@H](Cc2ccccc2)N(C)C(=O)[C@H](CC(C)C)N(C)C1=O [pd179] ([NMeA]L[NMeL][NMeF]S(Bn)[NMeF][NMeA]T[Sar][NMeL]D-Piperidide; lactam N-11)
Caco-2 ([1]; Table 36, Papp, sequences having Papp ≥ 1.0 × 10^−6 at ARC = 3): 2e-06 cm/s
Papp ([2]; Table 35, Papp, sequences having Papp ≥ 1.0 × 10^−6 at ARC = 3): 2 ×10⁻⁶ cm/s

SMILES: CC(C)C[C@@H]1NC(=O)[C@H](Cc2ccccc2)N(C)C(=O)[C@@H](C)NC(=O)C[C@@H](C(=O)N2CCCCC2)N(C)C(=O)[C@H](Cc2ccccc2)N(C)C(=O)[C@H](Cc2ccccc2)N(C)C(=O)[C@H](COC(C)(C)C)NC(=O)[C@H](CC(C)C)N(C)C(=O)CN(C)C(=O)[C@H]([C@@H](C)O)NC(=O)[C@H](CC(C)C)N(C)C1=O [pd224] ([dA][NMeF]L[NMeL]T[Sar][NMeL]S(tBu)[NMeF][NMeF][NMeD]-Piperidide; lactam N-11)
Papp (Caco-2, Caco-2 (cm/sec)): 1 ×10⁻⁶ cm/s

SMILES: CC[C@H](C)[C@@H]1NC(=O)[C@H](CC(C)C)N(C)C(=O)CN(C)C(=O)[C@H]([C@@H](C)O)NC(=O)[C@H](Cc2ccccc2)N(C)C(=O)[C@H](CC(C)C)NC(=O)[C@H](Cc2ccccc2)N(C)C(=O)[C@@H](CC(C)C)NC(=O)C[C@@H](C(=O)N2CCCCC2)NC(=O)[C@H](CC(C)C)N(C)C(=O)[C@H](Cc2ccccc2)N(C)C1=O [pd225] ([dL][NMeF]L[NMeF]T[Sar][NMeL]I[NMeF][NMeL]D-Piperidide; lactam N-11)
Papp (Caco-2, Caco-2 (cm/sec)): 1 ×10⁻⁶ cm/s

SMILES: CC(C)C[C@@H]1NC(=O)CN(C)C(=O)[C@H](Cc2ccccc2)N(C)C(=O)[C@@H](C)NC(=O)C[C@@H](C(=O)N2CCCCC2)NC(=O)[C@H](Cc2ccccc2)N(C)C(=O)[C@H](Cc2ccccc2)N(C)C(=O)[C@H](COC(C)(C)C)NC(=O)[C@H](CC(C)C)N(C)C(=O)[C@H](Cc2ccccc2)NC(=O)[C@H]([C@@H](C)O)NC1=O [pd248] ([dA][NMeF][Sar]LTF[NMeL]S(tBu)[NMeF][NMeF]D-Piperidide; lactam N-11)
Papp (Caco-2, Caco-2 (cm/sec) Papp): 0.014 ×10⁻⁶ cm/s

SMILES: CC(C)C[C@@H]1NC(=O)[C@H](Cc2ccccc2)N(C)C(=O)[C@@H](C(C)C)NC(=O)C[C@@H](C(=O)N2CCCCC2)NC(=O)[C@H](C(C)C)N(C)C(=O)[C@H](Cc2ccccc2)N(C)C(=O)[C@H](COC(C)(C)C)NC(=O)[C@H](CCN2CCCC(F)(F)C2)N(C)C(=O)CN(C)C(=O)[C@H]([C@@H](C)O)NC(=O)[C@H](CC(C)C)N(C)C1=O [pd387] ([dV][NMeF]L[NMeL]T[Sar][NMeAbu(3,3-F2-piperidino)]S(tBu)[NMeF][NMeV]D-Piperidide; lactam N-11)
Papp (Caco-2, Caco-2): 3.5 ×10⁻⁶ cm/s

SMILES: CCCCN1CC(=O)N(C)[C@@H](CC(C)C)C(=O)N[C@H](C(=O)N2CCCCC2)CC(=O)N(C)[C@@H](CC)C(=O)N[C@@H](CC(C)C)C(=O)N(C)[C@@H](CC(C)C)C(=O)N(C)[C@@H](Cc2ccccc2)C(=O)N[C@@H](COCCN2CCOCC2)C(=O)N(C)[C@@H](CC)C(=O)N(C)[C@@H](CC(C)C)C(=O)N[C@@H]([C@@H](C)O)C1=O [pd482] ([NMeAbu]L[NMeL][NMeF]S(Ethyl(2-morpholino))[NMeAbu][NMeL]T[NBuGly][NMeL]D-Piperidide; lactam N-11)
Caco-2 ([1]; Papp, membrane permeability, cyclic peptides comprising MeAbu(pip-4-F2), MeAbu(Mor), Ser(Et-2-Mor), MeAbu(pip-3-F2) or Abu(5-Oxo-Odz) (Table 29)): 1.1e-06 cm/s
